{"source": "patent US7229757B2", "about": "“Compounds displayed on icosahedral phage and methods of using same” (Xenoport, Inc., priority 2001, dated 2007)", "target": "T1, human folate receptor (Homo sapiens, UniProt P15328)", "T1 construct": "KB cells, which express high levels of the human folate receptor; endogenous in cells; host or cells: KB cells", "T1 sequence (P15328 25-234)": "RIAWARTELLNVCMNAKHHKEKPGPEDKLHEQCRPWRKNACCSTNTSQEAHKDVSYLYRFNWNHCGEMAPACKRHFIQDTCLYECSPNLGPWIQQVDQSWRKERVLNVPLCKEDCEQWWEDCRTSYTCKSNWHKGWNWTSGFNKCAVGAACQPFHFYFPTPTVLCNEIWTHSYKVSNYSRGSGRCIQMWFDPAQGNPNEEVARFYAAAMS", "assay": "screening of the 36-member folate analog library on T7 phage for uptake into KB cells", "assay_type": "cell-based", "settings": "compound displayed on T7 phage", "procedure": "KB cells were grown adherently in folate-free RPMI with 5% fetal bovine serum in a T75 flask. Prior to screening the compound library the media was removed and replaced with folate-free RPMI containing 0.1% BSA. An aliquot of the folate-analog phage library (˜10^9 pfu) was added to the flask containing 10^7 KB cells and incubated for 2 h at 37° C. Following the incubation period, the cells were detached from the flask by adding PBS containing 5 mM EDTA and incubating for 5 minutes at 37° C. The cell suspension was transferred to a tube and cells were pelleted by centrifugation. The cells were washed 3× with PBS followed by a single wash with “stripping” buffer (50 mM glycine, pH 2.8, 500 mM NaCl, 2M urea, 2% polyvinylpyrolidone) to remove phage particles that were both specifically and non-specifically bound to the surface of the cells. The cell suspension was neutralized by the addition of one half volume of 1 M Tris and centrifuged to pellet the cells. Cells were then lysed with PBS containing 1% SDS to recover phage that were endocytosed. To determine the number of recovered phage particles the lysate was titered by preparing a series of dilutions, infecting BL21 cells and plating on LB agar plates. The plates were incubated for 2-3 h at 37° C. until plaques were clearly visible. […]", "data": [{"smiles": "NNC(=O)COCCOCCNC(=O)CCC(NC(=O)c1ccc(NCc2cnc3nc(N)nc(O)c3n2)cc1)C(=O)O", "note": "(centres unmarked) [folate-hydrazide, Folate-hydrazide]", "values": [{"measurement": "share of sequenced random clones from the lysate carrying the clone's DNA tag", "setting": "21 sequences", "value": 38, "unit": "%"}, {"measurement": "enrichment of phage clone in the population recovered from the cell lysate (hybridization to library archive array)", "setting": "2 h at 37° C.", "value": "the only one enriched"}]}]}
